Source: patent US9901573B2, “Compositions, methods, and kits for regulating energy metabolism” (NuSirt Sciences, Inc., priority 2012, dated 2018)

Experiments:
Assay type in all cases: cell-based
C2C12 myotubes [1] = assay: Glucose utilization (extracellular acidification) in myotubes; conditions: FIG. 9
Procedure: (§1) Cell Culture: C2C12 and 3T3-L1 preadipocytes (American Type Culture Collection) were plated at a density of 8000 cells/cm^2 (10 cm^2 dish) and grown in Dulbecco's modified eagle's medium (DMEM) containing 10% fetal bovine serum (FBS), and antibiotics (growth medium) at 37° C. in 5% CO2. Confluent 3T3-L1 preadipocytes were induced to differentiate with a standard differentiation medium consisting of DMEM medium supplemented with 10% FBS, 250 nM dexamethasone, 0.5 mM 3-Isobutyl-1-methylxanthine (IBMX) and 1% penicillin-streptomycin. Preadipocytes were maintained in this differentiation medium for 3 days and subsequently cultured in growth medium. Cultures were re-fed every 2-3 days to allow >90% cells to reach fully differentiation before conducting chemical treatment. […]
(§2) Glucose Utilization: In the absence of a fatty acid source and oxidative metabolism, glycolysis and subsequent lactate production results in extracellular acidification, which was also measured using a Seahorse Bioscience XF24 analyzer. […] Data for each sample were normalized to the pre-glucose injection baseline for that sample and expressed as % change from that baseline. The area under of the curve of extracellular acidification change from baseline for each sample was the calculated and used for subsequent analysis.

C2C12 myotubes [2] = assay: Mitochondrial biogenesis (mitochondrial mass, NAO probe); conditions: FIG. 13
Procedure: Cell Culture: C2C12 and 3T3-L1 preadipocytes (American Type Culture Collection) were plated at a density of 8000 cells/cm^2 (10 cm^2 dish) and grown in Dulbecco's modified eagle's medium (DMEM) containing 10% fetal bovine serum (FBS), and antibiotics (growth medium) at 37° C. in 5% CO2. Confluent 3T3-L1 preadipocytes were induced to differentiate with a standard differentiation medium consisting of DMEM medium supplemented with 10% FBS, 250 nM dexamethasone, 0.5 mM 3-Isobutyl-1-methylxanthine (IBMX) and 1% penicillin-streptomycin. Preadipocytes were maintained in this differentiation medium for 3 days and subsequently cultured in growth medium. Cultures were re-fed every 2-3 days to allow >90% cells to reach fully differentiation before conducting chemical treatment. For differentiation of C2C12 cells, cells were grown to 100% confluence, transferred to differentiation medium (DMEM with 2% horse serum and 1% penicillin-streptomycin), and fed with fresh differentiation medium every day until myotubes were fully formed (3 days). Mitochondrial biogenesis: Mitochondrial biogenesis was assessed as change in mitochondrial mass, as previously described (2). The mitochondrial probe NAO (Invitrogen, Carlsbad, Calif.) was used to analyze mitochondrial mass by fluorescence (excitation 485 nm and emission 520 nm) and quantitative data was obtained with a fluorescence microplate reader (Synergy HT, BioTek Instruments, Winooski, Vt.). The intensity of fluorescence was expressed as arbitrary units per μg protein and normalized to control values within each assay.

C2C12 myotubes [3] = assay: Fatty acid oxidation (O2 consumption response to palmitate) in myotubes; conditions: FIG. 4/5, 24 hours, leucine, valine, isoleucine 0.5 mM, B6 100 nM as pyridoxal phosphate, vs control
Procedure: Cell Culture: C2C12 and 3T3-L1 preadipocytes (American Type Culture Collection) were plated at a density of 8000 cells/cm^2 (10 cm^2 dish) and grown in Dulbecco's modified eagle's medium (DMEM) containing 10% fetal bovine serum (FBS), and antibiotics (growth medium) at 37° C. in 5% CO2. Confluent 3T3-L1 preadipocytes were induced to differentiate with a standard differentiation medium consisting of DMEM medium supplemented with 10% FBS, 250 nM dexamethasone, 0.5 mM 3-Isobutyl-1-methylxanthine (IBMX) and 1% penicillin-streptomycin. Preadipocytes were maintained in this differentiation medium for 3 days and subsequently cultured in growth medium. Cultures were re-fed every 2-3 days to allow >90% cells to reach fully differentiation before conducting chemical treatment. For differentiation of C2C12 cells, cells were grown to 100% confluence, transferred to differentiation medium (DMEM with 2% horse serum and 1% penicillin-streptomycin), and fed with fresh differentiation medium every day until myotubes were fully formed (3 days). Fatty acid oxidation: Cellular oxygen consumption was measured using a Seahorse Bioscience XF24 analyzer (Seahorse Bioscience, Billerica, Mass.) in 24-well plates at 37° C., as described by Feige et al (1) with slight modifications. Cells were seeded at 40,000 cells per well, differentiated as described above, treated for 24 hours with the indicated treatments, washed twice with non-buffered carbonate-free pH 7.4 low glucose (2.5 mM) DMEM containing carnitine (0.5 mM), equilibrated with 550 μL of the same media in a non-CO2 incubator for 45 minutes, and then inserted into the instrument for 15 minutes of further equilibration, followed by O2 consumption measurement. Three successive baseline measurements at five-minute intervals were taken prior to injection of palmitate (200 μM final concentration). Four successive 5-minute measurements of O2 consumption were then conducted, followed by 10 minute re-equilibration and another 3-4 5-minute measurements. This measurement pattern was then repeated over a 4-6 hour period. Data for each sample were normalized to the pre-palmitate injection baseline for that sample and expressed as % change from that baseline. […] The area under of the curve of O2 consumption change from baseline for each sample was then calculated and used for subsequent analysis.

3T3-L1 adipocytes = assay: Glucose utilization (extracellular acidification) in adipocytes; conditions: FIG. 10
Procedure: as §1, §2

CC(C)C[C@H](N)C(=O)O [Leucine, leucine]
increase in glucose utilization (C2C12 myotubes [1]): no independent significant effect
increase in mitochondrial biogenesis (mitochondrial biomass) (C2C12 myotubes [2]): about 15%
increase in fatty acid oxidation (C2C12 myotubes [3]): 73%
increase in glucose utilization (3T3-L1 adipocytes): no independent significant effect
